The text below walks through data of patent publication US6525053B1, “Prostaglandin endoperoxide H synthase biosynthesis inhibitors” (Abbott Laboratories, priority 1997, dated 2003).

The target of data set [1] is T1, recombinant human Cox-2 (Homo sapiens, UniProt P35354).
T1 construct: made in house; host or cells: baculovirus/Sf9 insect cells (microsomes)
T1 sequence (P35354 18-604): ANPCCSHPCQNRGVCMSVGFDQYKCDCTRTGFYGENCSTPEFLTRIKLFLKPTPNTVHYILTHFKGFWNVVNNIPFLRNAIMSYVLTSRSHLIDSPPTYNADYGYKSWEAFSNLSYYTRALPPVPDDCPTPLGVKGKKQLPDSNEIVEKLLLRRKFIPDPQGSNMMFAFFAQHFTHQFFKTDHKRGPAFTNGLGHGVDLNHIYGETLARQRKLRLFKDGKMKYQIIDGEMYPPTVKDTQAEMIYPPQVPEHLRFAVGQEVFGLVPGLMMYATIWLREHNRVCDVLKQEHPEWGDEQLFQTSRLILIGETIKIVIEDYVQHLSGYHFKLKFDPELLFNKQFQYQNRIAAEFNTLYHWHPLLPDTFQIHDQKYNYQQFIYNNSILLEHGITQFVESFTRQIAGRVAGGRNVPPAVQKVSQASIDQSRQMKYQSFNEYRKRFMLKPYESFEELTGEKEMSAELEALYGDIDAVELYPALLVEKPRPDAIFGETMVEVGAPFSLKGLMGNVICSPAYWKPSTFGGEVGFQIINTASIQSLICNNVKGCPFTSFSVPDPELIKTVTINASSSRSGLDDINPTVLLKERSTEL
In words: Recombinant human PGHS-2 (Cox-2) enzyme assay, PGE2 by EIA. The format is biochemical. As to conditions: at 1000 nM. As to the method:
To compare the mean responses of the treatment groups, analysis of variance was applied. Percent inhibition values were determined by comparing the individual treatment mean values to the mean of the control group. Linear regression was used to estimate IC50's/ED50's in appropriate assays.
EIA reagents for prostaglandin determination were purchased from Perseptive Diagnostics, (Cambridge, Mass.). PGE2 levels in lavage fluids were determined after the samples were dried under nitrogen and reconstituted with assay buffer. PGE2 levels in enzyme assays or cell culture media were measured against standards prepared in the same milieu. The immunoassays were conducted as recommended by the manufacturer. The EIA was conducted in 96 well microtiter plates (Nunc Roskilde, Denmark) and optical density was measured using a microplate reader (Vmax, Molecular Devices Corp., Menlo Park, Calif.).
Inhibition of prostaglandin biosynthesis in vitro was evaluated using recombinant human Cox-1 (r-hu Cox1) and Cox-2 (r-hu Cox2) enzyme assays. […] PGE2 production in the presence and absence of the drug was determined by EIA analysis. The EIA was conducted in 96 well microtiter plates (Nunc Roskilde, Denmark) and optical density was measured using a microplate reader (Vmax, Molecular Devices Corp., Menlo Park, Calif.). […] PGE2 levels were measured against standards prepared in the same milieu. […]

Each structure is given as a SMILES string.

Take `CS(=O)(=O)c1ccc(-c2cc(=O)[nH]nc2-c2ccc(F)cc2)cc1` [Example 6, 5-(4-Methylsulfonylphenyl)-6-(4-fluorophenyl)-3(2H)-pyridazinone]: the melting point (in general, the temperature of the solid-liquid transition) was 260 to 262 °C.
In the case of `CS(=O)(=O)c1ccc(-c2cc(=O)n(Cc3ccccc3)nc2-c2ccc(F)cc2)cc1` [Example 7, 2-Benzyl-5-(4-methylsulfonylphenyl)-6-(4-fluorophenyl)-3(2H)-pyridazinone], the melting point was in the range of 172 to 174 °C.
The compound `Cn1nc(-c2ccc(F)cc2)c(-c2ccc(S(C)(=O)=O)cc2)cc1=O` [Example 8, 2-Methyl-5-(4-methylsulfonylphenyl)-6-(4-fluorophenyl)-3(2H)-pyridazinone] had a melting point of 181 to 182 °C.
Regarding `CCn1nc(-c2ccc(F)cc2)c(-c2ccc(S(C)(=O)=O)cc2)cc1=O` [Example 9, 2-Ethyl-5-(4-methylsulfonylphenyl)-6-(4-fluorophenyl)-3(2H)-pyridazinone], the melting point lay in the range of 177 to 179 °C.
Compound `CS(=O)(=O)c1ccc(-c2cc(=O)n(Cc3ccc(F)cc3)nc2-c2ccc(F)cc2)cc1` [Example 10, 2-(4-Fluorobenzyl)-5-(4-methylsulfonylphenyl)-6-(4-fluorophenyl)-3(2H)-pyridazinone] registered a melting point of 150 to 151 °C.
Turning to `CCCCn1nc(-c2ccc(F)cc2)c(-c2ccc(S(C)(=O)=O)cc2)cc1=O` [Example 11, 2-(n-Butyl)-5-(4-methylsulfonylphenyl)-6-(4-fluorophenyl)-3(2H)-pyridazinone], the melting point lay within 111 to 113 °C.
As for `CC(c1ccc(F)cc1)n1nc(-c2ccc(F)cc2)c(-c2ccc(S(C)(=O)=O)cc2)cc1=O` (stereo not drawn) [Example 12, 2-(4-Fluoro-α-methylbenzyl)-5-(4-methylsulfonylphenyl)-6-(4-fluorophenyl)-3(2H)-pyridazinone], the melting point was 185 to 186 °C.
For the compound `CCCn1nc(-c2ccc(F)cc2)c(-c2ccc(S(C)(=O)=O)cc2)cc1=O` [Example 13, 2-(n-Propyl)-5-(4-methylsulfonylphenyl)-6-(4-fluorophenyl)-3(2H)-pyridazinone], the melting point was in the range of 155 to 157 °C.
On the same count and under the same terms, the value for `CCCCCn1nc(-c2ccc(F)cc2)c(-c2ccc(S(C)(=O)=O)cc2)cc1=O` [Example 14, 2-(n-Pentyl)-5-(4-methylsulfonylphenyl)-6-(4-fluorophenyl)-3(2H)-pyridazinone] was 65 to 67 °C.
With `CS(=O)(=O)c1ccc(-c2cc(=O)n(CC3CCCCC3)nc2-c2ccc(F)cc2)cc1` [Example 15, 2-Cyclohexylmethyl-5-(4-methylsulfonylphenyl)-6-(4-fluorophenyl)-3(2H)-pyridazin-one], the melting point lay within 175 to 176 °C.
`CS(=O)(=O)c1ccc(-c2cc(=O)n(CC(=O)c3ccccc3)nc2-c2ccc(F)cc2)cc1` [Example 16, 2-Phenacyl-5-(4-methylsulfonylphenyl)-6-(4-fluorophenyl)-3(2H)-pyridazinone] returned a melting point of 178 to 180 °C.
`C#CCn1nc(-c2ccc(F)cc2)c(-c2ccc(S(C)(=O)=O)cc2)cc1=O` [Example 17, 2-Propargyl-5-(4-methylsulfonylphenyl)-6-(4-fluorophenyl)-3(2H)-pyridazinone] had a melting point of 168 to 169 °C.
Compound `CS(=O)(=O)c1ccc(-c2cc(=O)n(C3CCCCC3)nc2-c2ccc(F)cc2)cc1` [Example 18, 2-Cyclohexyl-5-(4-methylsulfonylphenyl)-6-(4-fluorophenyl)-3(2H)-pyridazinone] gave a melting point of 86 to 90 °C.
Compound `CC#CCn1nc(-c2ccc(F)cc2)c(-c2ccc(S(C)(=O)=O)cc2)cc1=O` [Example 19, 2-(2-Butyn-1-yl)-5-(4-methylsulfonylphenyl)-6-(4-fluorophenyl)-3(2H)-pyridazinone] returned a melting point of 81 to 82 °C.
Still for that read-out and setting: the value for `CS(=O)(=O)c1ccc(-c2cc(=O)n(CC3CCC3)nc2-c2ccc(F)cc2)cc1` [Example 20, 2-(Cyclobutylmethyl)-5-(4-methylsulfonylphenyl)-6-(4-fluorophenyl)-3(2H)-pyridazinone] was 74 to 76 °C; that for `CC(C)=CCn1nc(-c2ccc(F)cc2)c(-c2ccc(S(C)(=O)=O)cc2)cc1=O` [Example 21] was 71 to 72 °C.
In the case of `CS(=O)(=O)c1ccc(-c2cc(=O)n(CC(F)(F)F)nc2-c2ccc(F)cc2)cc1` [Example 22, 2-(2,2,2-Trifluoroethyl)-5-(4-methylsulfonylphenyl)-6-(4-fluorphenyl)-3(2H)-pyridazinone], in data set [1], the “RHUCX2 Cox-2 percent inhibition” value is 46 @ 1000%.
On to `CS(=O)(=O)c1ccc(-c2cc(=O)n(CC3CC3)nc2-c2ccc(F)cc2)cc1` [Example 23, 2-(Cyclopropylmethyl)-5-(4-methylsulfonylphenyl)-6-(4-fluorophenyl)-3(2H)-pyridazinone], for which the melting point is 130 to 132 °C.
Compound `CS(=O)(=O)c1ccc(-c2cc(=O)n(CC3CCCC3)nc2-c2ccc(F)cc2)cc1` [Example 24, 2-Cyclopentylmethyl-5-(4-methylsulfonylphenyl)-6-(4-fluorophenyl)-3(2H)-pyridazinone] had a melting point of 76 to 77 °C.
Compound `CS(=O)(=O)c1ccc(-c2cc(=O)n(C3CCCC3)nc2-c2ccc(F)cc2)cc1` [Example 25, 2-Cyclopentyl-5-(4-methylsulfonylphenyl)-6-(4-fluorophenyl)-3(2H)-pyridazinone] gave a melting point of 191 to 192 °C.
